Several values for one entry are separate records, joined by “and”; a condition that tells them apart may be missing. Equal entries are not always repeated. Inconclusive results and toxic doses are left out. Rule as the data show it: active = T/C of 150% or more; inactive = T/C below 125%.
Tested on: L1210 leukemia ip in BDF1 mice, survival T/C
Assay: NCI In Vivo Anticancer Drug Screen. Data for tumor model L1210 Leukemia (intraperitoneal) in B6D2F1 (BDF1) mice
Details: endpoint: mean survival time, higher = longer survival
Summary of the method: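 Survival endpoint. Drug-treated group vs vehicle group, expressed as T divided by C. Tumor passaged by transplantation.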

[1] = dose: 10.0 mg/kg/injection, schedule: Q01DX001 (ip), vehicle: saline
[2] = dose: 50.0 mg/kg/injection, schedule: Q01DX009 (ip), vehicle: saline with Tween-80
[3] = dose: 100.0 mg/kg/injection, schedule: Q01DX009 (ip), vehicle: saline with Tween-80
[4] = dose: 200.0 mg/kg/injection, schedule: Q01DX009 (ip), vehicle: saline with Tween-80
[5] = dose: 100.0 mg/kg/injection, schedule: Q04DX002 (ip), vehicle: Klucel (hydroxypropylcellulose) (HPC)
[6] = dose: 400.0 mg/kg/injection, schedule: Q01DX009 (ip), vehicle: saline with Tween-80
[7] = dose: 25.0 mg/kg/injection, schedule: Q01DX009 (ip), vehicle: Klucel (hydroxypropylcellulose) (HPC)
[8] = dose: 50.0 mg/kg/injection, schedule: Q01DX009 (ip), vehicle: Klucel (hydroxypropylcellulose) (HPC)
[9] = dose: 25.0 mg/kg/injection, schedule: Q01DX009 (ip), vehicle: saline with Tween-80
[10] = dose: 50.0 mg/kg/injection, schedule: Q04DX003 (ip), vehicle: Klucel (hydroxypropylcellulose) (HPC)
[11] = dose: 50.0 mg/kg/injection, schedule: Q04DX003 (ip), vehicle: saline with Tween-80
[12] = dose: 100.0 mg/kg/injection, schedule: Q01DX009 (ip), vehicle: Klucel (hydroxypropylcellulose) (HPC)
[13] = dose: 100.0 mg/kg/injection, schedule: Q04DX003 (ip), vehicle: Klucel (hydroxypropylcellulose) (HPC)
[14] = dose: 100.0 mg/kg/injection, schedule: Q04DX003 (ip), vehicle: saline with Tween-80
[15] = dose: 400.0 mg/kg/injection, schedule: Q01DX009 (ip), vehicle: Klucel (hydroxypropylcellulose) (HPC)

Measured: T/C

CCCCCCCCCCCCCCCC[n+]1ccc(C#N)cc1
inactive: dose: 1.25 mg/kg/injection, schedule: Q01DX009 (ip), vehicle: saline 89 % of control | dose: 2.5 mg/kg/injection, schedule: Q01DX009 (ip), vehicle: saline 97 % of control | dose: 2.5 mg/kg/injection, schedule: Q04DX003 (ip), vehicle: saline 97 % of control | dose: 5.0 mg/kg/injection, schedule: Q01DX009 (ip), vehicle: saline 94 % of control | dose: 5.0 mg/kg/injection, schedule: Q04DX003 (ip), vehicle: saline 101 % of control | [1] 90 % of control | dose: 10.0 mg/kg/injection, schedule: Q04DX003 (ip), vehicle: saline 94 % of control

O=C(O)CSc1ccc(Cl)cc1
inactive: [2] 100 % of control | [3] 93 % of control | [4] 94 % of control

ClCCN(CCCl)c1ccc(C=Nc2cc(Cl)ccc2-n2ccnc2)c(Cl)c1
inactive: [5] 98 % of control | dose: 200.0 mg/kg/injection, schedule: Q04DX002 (ip), vehicle: Klucel (hydroxypropylcellulose) (HPC) 95 % of control | dose: 400.0 mg/kg/injection, schedule: Q04DX002 (ip), vehicle: Klucel (hydroxypropylcellulose) (HPC) 98 % of control

CCOC(=O)C(C(C)=O)c1cc(NS(=O)(=O)c2ccccc2)ccc1O (stereo not drawn)
inactive: [3] 95 % of control | [4] 96 % of control | [6] 93 % of control

O=C(O)c1[nH]c(=O)[nH]c(=O)c1N1CCCCC1
inactive: dose: 12.0 mg/kg/injection, schedule: Q01DX001 (ip), vehicle: saline 106 % of control | dose: 25.0 mg/kg/injection, schedule: Q01DX001 (ip), vehicle: saline 101 % of control | [7] 105 % of control | [8] 92 % of control

CCCc1c(OCC)c(OC)c2c3c(c(-c4c(C)cc5c(CCC)c(OCC)c(OC)c6c5c4OC6NNc4ccccc4)c(C)cc13)OC2NNc1ccccc1 (stereo not drawn)
inactive: dose: 75.0 mg/kg/injection, schedule: Q01DX001 (ip), vehicle: Klucel (hydroxypropylcellulose) (HPC) 98 % of control | dose: 150.0 mg/kg/injection, schedule: Q01DX001 (ip), vehicle: Klucel (hydroxypropylcellulose) (HPC) 93 % of control | dose: 300.0 mg/kg/injection, schedule: Q01DX001 (ip), vehicle: Klucel (hydroxypropylcellulose) (HPC) 91 % of control | dose: 300.0 mg/kg/injection, schedule: Q04DX003 (ip), vehicle: Klucel (hydroxypropylcellulose) (HPC) 87 % of control

CCN(CC)CCOc1cc(C)ccc1C(C)C
inactive: [9] 93 % of control | [8] 102 % of control | [2] 93 % of control | [10] 100 % of control | [11] 100 % of control | dose: 100.0 mg/kg/injection, schedule: Q01DX001 (ip), vehicle: saline 98 % of control | [12] 103 % of control | [3] 113 % of control | [13] 96 % of control | [14] 95 % of control | dose: 200.0 mg/kg/injection, schedule: Q01DX001 (ip), vehicle: saline 113 % of control

CCOP(=O)(Nc1ccc2c(c1)Cc1cc(Br)ccc1-2)OCC
inactive: dose: 50.0 mg/kg/injection, schedule: Q01DX001 (ip), vehicle: carboxymethylcellulose (CMC) 105 % of control | dose: 100.0 mg/kg/injection, schedule: Q01DX001 (ip), vehicle: carboxymethylcellulose (CMC) 92 % of control | dose: 200.0 mg/kg/injection, schedule: Q01DX001 (ip), vehicle: carboxymethylcellulose (CMC) 105 % of control | dose: 400.0 mg/kg/injection, schedule: Q01DX001 (ip), vehicle: carboxymethylcellulose (CMC) 108 % of control

[Br][Bi]([Br])([c]1ccccc1)([c]1ccccc1)[c]1ccccc1
inactive: dose: 12.5 mg/kg/injection, schedule: Q04DX002 (ip), vehicle: Klucel (hydroxypropylcellulose) (HPC) 97 % of control | dose: 25.0 mg/kg/injection, schedule: Q04DX002 (ip), vehicle: Klucel (hydroxypropylcellulose) (HPC) 101 % of control | dose: 50.0 mg/kg/injection, schedule: Q04DX002 (ip), vehicle: Klucel (hydroxypropylcellulose) (HPC) 104 % of control | [5] 97 % of control

O=C(C(Br)C(Br)c1ccccc1)C(Br)C(Br)c1ccccc1 (stereo not drawn)
inactive: dose: 100.0 mg/kg/injection, schedule: Q04DX003 (ip), vehicle: saline sonified 101 % of control | dose: 200.0 mg/kg/injection, schedule: Q04DX003 (ip), vehicle: saline sonified 105 % of control | dose: 400.0 mg/kg/injection, schedule: Q04DX003 (ip), vehicle: saline sonified 97 % of control

O=C(COc1ccc(Cl)cc1)Nc1ccc(Cl)cc1C(=O)c1ccccc1
inactive: dose: 50.0 mg/kg/injection, schedule: Q01DX009 (ip), vehicle: other 106 % of control | dose: 100.0 mg/kg/injection, schedule: Q01DX009 (ip), vehicle: other 102 % of control | dose: 200.0 mg/kg/injection, schedule: Q01DX009 (ip), vehicle: other 96 % of control and 87 % of control | dose: 400.0 mg/kg/injection, schedule: Q01DX009 (ip), vehicle: other 89 % of control

CCCCOB(CCl)OCCCC
inactive: dose: 6.25 mg/kg/injection, schedule: Q04DX003 (ip), vehicle: saline sonified 103 % of control | dose: 12.5 mg/kg/injection, schedule: Q04DX003 (ip), vehicle: saline sonified 97 % of control | dose: 25.0 mg/kg/injection, schedule: Q04DX003 (ip), vehicle: saline sonified 100 % of control

O=C1CCC(c2cccc([N+](=O)[O-])c2)=NN1
inactive: [12] 89 % of control | dose: 200.0 mg/kg/injection, schedule: Q01DX009 (ip), vehicle: Klucel (hydroxypropylcellulose) (HPC) 93 % of control | [15] 89 % of control

S=c1[nH]c2nccnc2[nH]1
inactive: [9] 96 % of control | [2] 96 % of control | [3] 93 % of control | [4] 97 % of control | [6] 104 % of control

CC(=O)OCC1OC(OC(C)=O)C(O)C(OC(C)=O)C1OC(C)=O (stereo not drawn)
inactive: dose: 100.0 mg/kg/injection, schedule: Q01DX001 (ip), vehicle: Klucel (hydroxypropylcellulose) (HPC) 113 % of control | dose: 200.0 mg/kg/injection, schedule: Q01DX001 (ip), vehicle: Klucel (hydroxypropylcellulose) (HPC) 102 % of control | dose: 400.0 mg/kg/injection, schedule: Q01DX001 (ip), vehicle: Klucel (hydroxypropylcellulose) (HPC) 117 % of control

C(=C\c1nc2ccccc2nc1/C=C/c1ccc2c(c1)OCO2)/c1ccc2c(c1)OCO2
inactive: dose: 12.5 mg/kg/injection, schedule: Q01DX009 (ip), vehicle: Klucel (hydroxypropylcellulose) (HPC) 95 % of control | [7] 92 % of control | [8] 100 % of control | [13] 102 % of control | dose: 200.0 mg/kg/injection, schedule: Q04DX003 (ip), vehicle: Klucel (hydroxypropylcellulose) (HPC) 96 % of control | [15] 86 % of control | dose: 400.0 mg/kg/injection, schedule: Q04DX003 (ip), vehicle: Klucel (hydroxypropylcellulose) (HPC) 95 % of control

CN(C)C(C)(C)CC(C)(C)C
inactive: dose: 25.0 mg/kg/injection, schedule: Q04DX003 (ip), vehicle: saline with Tween-80 103 % of control | [11] 106 % of control | [14] 103 % of control

Nc1ncnc2[nH]c(=O)[nH]c12
inactive: dose: 25.0 mg/kg/injection, schedule: Q04DX003 (ip), vehicle: saline 105 % of control | dose: 50.0 mg/kg/injection, schedule: Q04DX003 (ip), vehicle: saline 102 % of control | dose: 100.0 mg/kg/injection, schedule: Q04DX003 (ip), vehicle: saline 98 % of control

COc1cc(C[N+]23CC[N+](Cc4cc(OC)cc(OC)c4)(CC2)C3)cc(OC)c1
inactive: dose: 5.0 mg/kg/injection, schedule: Q01DX001 (ip), vehicle: saline 100 % of control | [1] 100 % of control | dose: 20.0 mg/kg/injection, schedule: Q01DX001 (ip), vehicle: saline 103 % of control | dose: 40.0 mg/kg/injection, schedule: Q01DX001 (ip), vehicle: saline 103 % of control | dose: 80.0 mg/kg/injection, schedule: Q01DX001 (ip), vehicle: saline 100 % of control

O=C1C(Br)=CC(=NBr)C=C1Br
inactive: dose: 25.0 mg/kg/injection, schedule: Q04DX003 (ip), vehicle: Klucel (hydroxypropylcellulose) (HPC) 101 % of control | [10] 101 % of control | [13] 97 % of control

C=C(Cl)CN(CC)CCO
inactive: [14] 98 % of control | dose: 200.0 mg/kg/injection, schedule: Q04DX003 (ip), vehicle: saline with Tween-80 102 % of control | dose: 400.0 mg/kg/injection, schedule: Q04DX003 (ip), vehicle: saline with Tween-80 108 % of control

— PubChem BioAssay AID248 (DTP/NCI, 2004)
